Results on seven compounds are retold here after patent US10183941B2, “Pyrimidine or pyridopyridone compound and application thereof” (GUANGZHOU BEBETTER MEDICINE TECHNOLOGY CO., LTD., priority 2015, dated 2019).

Where two headings read alike, the source gives them in different places. A value given as a limit tells only on which side of the number the result lay.

For data set [1], the target named is T1, CDK6 (GST-CDK6(1-326end)) (Homo sapiens, UniProt Q00534).
T1 construct: GST-CDK6(1-326end); purchased Carna 04-107
As to the kind of experiment: CDK6 activity inhibition experiment (Caliper mobility shift assay). Format: biochemical. Particulars: enzyme activity inhibition; read-out: CDK6 IC50 class. How it is done: The activity of CDK6 protein kinase was measured using Caliper mobility shift assay (see J. Biomol Screen 14:31, 2009). […] 10 μl of the 2.5 times diluted CDK6 enzyme solution (GST-CDK6(1-326end); Carna, Cat. No 04-107) was added and then incubated at room temperature for 10 minutes, then 10 μl of the 2.5 times diluted substrate solution Peptide FAM-P8 (GL Biochem, Cat. No. 112396) was added. After being incubated at 28° C. for 40 minutes, 25 μl of stop solution was added to stop the reaction. Conversion rate data was read from Caliper EZ Reader II (Caliper Life Sciences). The conversion rate data was converted into inhibition rate data. […] Conversion rate data was converted into inhibition rate data according to the method described above. Inhibition rate %=(max−conversion rate)/(max−min)×100.

Data set [2] has as its target T2, CDK4 (GST-CDK4(1-303end)/GST-CycD3(1-292end)) (Homo sapiens, UniProt P11802).
T2 construct: GST-CDK4(1-303end); purchased Carna 04-105
As to the kind of experiment: CDK4 activity inhibition experiment (Caliper mobility shift assay). Format: biochemical. The settings on record: enzyme activity inhibition; read-out: CDK4 IC50 class.

The subject of data set [3] is ZR-75-1. As to the kind of experiment: Tumor cell proliferation inhibition (CellTiter-Glo), ZR-75-1. Particulars: Homo sapiens, 72 hours, 10% fetal bovine serum, read-out: ZR-75-1 IC50 class. The class given is cell-based. How it is done:
(§1) The content of adenosine triphosphate (ATP) was determined using the CellTiter-Glo Luminescent Cell Viability Assay Kit (Promega, Madison, Wis.) to evaluate cell viability. Tumor cell lines (SW620, ZR-75-1, MDA-MB-231) were purchased from the Cell Resource Center of IBS, Fudan University, Shanghai and the American Type Culture Collection (ATCC). The cell density was determined using Scepter automated cell counter (Millipore # PHCC00000) after the cells were digested with pancreatin in cell culture dishes and resuspended in DPBS medium. The cells were diluted to a solution of 44,000 cells per ml. The cell solution of which density was adjusted was added into the cell assay plate at 90 microliters per well. The well plate was incubated in an incubator with 5% CO2 at 37° C. for 24 hours and then added with test compounds with different concentrations. The cells were incubated with the compounds in the presence of 10% fetal bovine serum for 72 hours. ATP content was assayed using the CellTiter-Glo® Luminescent Cell Viability Assay kit (see instructions of manufacturer) to assess cell growth inhibition. Briefly, 30 μl of CellTiter-Glo® reagent was added to each well, rocked for 10 minutes to induce cell lysis, and […] were detected and recorded with Fluoroskan Ascent FL (Thermo). The maximum signal value was obtained from the cells treated with dimethyl sulfoxide for 72 hours. The minimum signal value was obtained from the separate culture medium (cell number was zero). Inhibition rate %=(maximum signal value−compound signal value)/(maximum signal value−minimum signal value)×100. Data was processed using GraphPad Prism V5.0 (GraphPad Software, San Diego, Calif.) software. IC50 values were calculated by fitting S-shaped dose-response curves.

Data set [4] concerns MDA-MB-231. As to the kind of experiment: Tumor cell proliferation inhibition (CellTiter-Glo), MDA-MB-231. The settings on record: Homo sapiens, 72 hours, 10% fetal bovine serum, read-out: MDA-MB-231 IC50 class. The class given is cell-based. How it is done: as §1
The test system of data set [5] is SW620. As to the kind of experiment: Tumor cell proliferation inhibition (CellTiter-Glo), SW620. Format: cell-based. The settings on record: Homo sapiens, SW-620; 72 hours, 10% fetal bovine serum; read-out: SW620 IC50 class. How it is done:
as §1
In general terms: Cellular ATP, detected with luciferase, serves as a proxy for viable cell number.

In data set [6] the target is T3, CDK2 (Homo sapiens, UniProt P24941).
T3 construct: purchased Carna 04-103
The data set is described as follows: CDK2 activity inhibition experiment (Caliper mobility shift assay). The class given is biochemical. Particulars: enzyme activity inhibition; read-out: CDK2 IC50 class. How it is done: After being incubated at 28° C. for 60 minutes, 25 μl of stop solution was added to stop the reaction. Conversion rate data was read from Caliper EZ Reader II (Caliper Life Sciences). The conversion rate data was converted into inhibition rate data. […] The curve was plotted with compound concentration and inhibition rate as horizontal and vertical coordinates, and the IC50 was calculated by fitting the curve using XLFit excel add-in version 4.3.1 software. Inhibition rate %=(max-conversion rate)/(max-min)×100.

In data set [7] the test system is MDA-MB-231 breast cancer cells. The data set is described as follows: Cell cycle inhibition experiment (PI staining, flow cytometry). The settings on record: Homo sapiens, MDA-MB-231 cells, 24 h. Format: cell-based. The text has this:
The cell cycle and apoptosis assay kit (Beyotime, C1052) used in this experiment is an assay kit for analyzing the cell cycle and apoptosis using the classic method of Propidium staining (PI staining). Propidium (PI) is a double-stranded DNA fluorescent dye. The combination of propidium and double-stranded DNA can produce fluorescence, and fluorescence intensity is proportional to the amount of double-stranded DNA. After DNA in cells is stained with propidium, the DNA content of the cells can be measured by flow cytometry, and then the cell cycle and apoptosis can be analyzed according to the distribution of DNA content.
MDA-MB-231 cells were seeded into a 6-well plate at 3×10^5 per well and cultured for 24 hours.
In tumor cell cycle, the binding of CDK4 and CDK6 to cyclin D promotes G1 phase into S phase. CDK4/6 inhibitor selectively arrests the G1 phase of tumor cells into S phase. The detection results of the cell cycle of MDA-MB-231 breast cancer cells by flow cytometry indicate that the CDK4/6 inhibitor compounds provided by the present disclosure stop the growth of G1 phase cells and reduce S phase cells in a concentration-dependent manner, as shown in the following table.
(In general: A flow cytometer gives signals particle by particle.)

For data set [8] the following is noted: cited from earlier work.
The subject of data set [9] is locally advanced or metastatic breast cancer, ER+ / HER2−. Particulars: cited from earlier work.
For data set [10], the system named is MDA-MB-435 breast cancer cells. The data set is described as follows: Pharmacodynamic experiment, MDA-MB-435 xenograft. The class given is in vivo, mouse. How it is done: MDA-MB-435 breast cancer cells were obtained from Shanghai Cell Bank of Chinese Academy of Sciences. Cryopreserved cells were thawed in a 37° C. water bath and then placed in RPMI 1640 medium supplemented with 10% fetal bovine serum (FBS), 1% insulin (Bioman Biotech, Shanghai) and incubated in 5% CO2 of Tissue Culture Incubator. […] The sign of successful transplantation was the formation of a round bulging lump under the skin. Tumor size can be measured approximately two weeks after implantation. The tumor size was measured by a caliper.

Data set [11] is described as follows: Pharmacokinetic (PK) experiment in rats. Format: in vivo. The settings on record: male, SD, plasma, po, rat, intragastric 20 mg/kg. How it is done: Male SD rats weighing 300-350 g were fasted overnight prior to the experiment. The compounds to be tested were dissolved in 30% sulfobutyl ether-β-cyclodextrin (SBE-β-CD) and the rats were intragastric administration at 20 mg/kg. The blood was taken from the tails of the rats at 15 min, 30 min, and 1, 2, 3, 4, 6, 8 and 24 hours after administration, with about 0.3 ml of blood at each time point, and then the blood was placed in a centrifuge tube containing K2-EDTA, and centrifuged (2,000 g, 10 min, 4° C.) to take the plasma which was then stored in an ultra-low temperature freezer at −80° C. 50 μL, of plasma sample was mixed with 5 μL of internal standard (IS) and extracted with ethyl acetate. The residue was redissolved in acetonitrile after vacuum drying. The sample was filtered and injected into LC-MS/MS for analysis to determine the concentration of the compounds to be tested.
In the table: Tmax refers to the peak time, Cmax refers to the maximum plasma drug concentration, T1/2 is the half-life, AUClast refers to the area under the 0-24 hour time-concentration curve, AUCinf refers to the area under the 0-Inf time-concentration curve.

T1 sequence (Q00534 whole entry): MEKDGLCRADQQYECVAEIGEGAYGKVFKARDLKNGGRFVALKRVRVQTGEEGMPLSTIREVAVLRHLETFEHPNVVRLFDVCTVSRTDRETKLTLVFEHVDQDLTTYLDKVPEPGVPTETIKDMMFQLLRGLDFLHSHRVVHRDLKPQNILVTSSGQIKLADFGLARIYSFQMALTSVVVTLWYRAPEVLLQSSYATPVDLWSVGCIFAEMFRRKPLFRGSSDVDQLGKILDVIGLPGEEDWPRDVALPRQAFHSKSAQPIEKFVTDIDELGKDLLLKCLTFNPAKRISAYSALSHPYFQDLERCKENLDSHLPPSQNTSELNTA
T1 sequence (P30281 whole entry partner): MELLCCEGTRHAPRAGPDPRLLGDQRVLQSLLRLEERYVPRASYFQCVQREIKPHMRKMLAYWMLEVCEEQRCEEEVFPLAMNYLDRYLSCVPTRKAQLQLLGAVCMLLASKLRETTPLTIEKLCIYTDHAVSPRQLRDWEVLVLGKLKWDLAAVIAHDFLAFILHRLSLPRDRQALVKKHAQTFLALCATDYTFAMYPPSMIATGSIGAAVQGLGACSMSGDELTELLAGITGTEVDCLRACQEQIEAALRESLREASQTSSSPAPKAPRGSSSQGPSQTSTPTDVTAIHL
T2 sequence (P11802 whole entry): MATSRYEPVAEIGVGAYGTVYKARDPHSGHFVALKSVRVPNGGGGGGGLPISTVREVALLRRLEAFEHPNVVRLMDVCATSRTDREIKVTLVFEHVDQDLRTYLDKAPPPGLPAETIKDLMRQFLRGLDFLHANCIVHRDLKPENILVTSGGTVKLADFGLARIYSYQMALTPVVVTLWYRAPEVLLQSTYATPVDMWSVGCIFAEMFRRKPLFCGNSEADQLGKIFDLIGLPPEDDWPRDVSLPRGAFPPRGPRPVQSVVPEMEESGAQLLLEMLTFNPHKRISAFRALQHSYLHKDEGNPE
T2 sequence (P30281 whole entry partner): as the sequence (P30281 whole entry partner) above

Turning to `CC(=O)c1c(C)c2cnc(Nc3ccc(C4CCN(CCS(=O)(=O)c5ccc(Cl)cc5)CC4)cn3)nc2n(C2CCCC2)c1=O` [Compound 4, 6-acetyl-2-((5-(1-(2-((4-chlorophenyl)sulfonyl)ethyl)piperidin-4-yl)pyridin-2-yl)amino)-8-cyclopentyl-5-methylpyrido[2,3-d]pyrimidin-7(8H)-one], the IC50 – broadly, the point on the concentration scale where inhibition reaches its midpoint – in data set [1] is above 500 nM.
As for `CC(=O)c1c(C)c2cnc(Nc3ccc(C4CCCN(CCS(C)(=O)=O)C4)cn3)nc2n(C2CCCC2)c1=O` (centres unmarked) [Compound 5, 6-acetyl-8-cyclopentyl-5-methyl-2-((5-(1-(2-(methylsulfonyl)ethyl)piperidin-3-yl)pyridin-2-yl)amino)pyrido[2,3-d]pyrimidin-7(8H)-one], the IC50 in data set [1] was 10 to 50 nM; in [2] it was 10 to 50 nM; in data set [3], 100 to 500 nM; in [4], 500 to 1000 nM; in [5], 100 to 500 nM; in data set [6], above 500 nM.
With `CC(=O)c1c(C)c2cnc(Nc3ccc(C4CCN(CCS(C)(=O)=O)CC4)cn3)cc2n(C2CCCC2)c1=O` [Compound 13, 3-acetyl-1-cyclopentyl-4-methyl-7-((5-(1-(2-(methylsulfonyl)ethyl)piperidin-4-yl)pyridin-2-yl)amino)-1,6-naphthyridin-2(1H)-one], the concentration for half-maximal inhibition (IC50) in [1] is 10 to 50 nM; in data set [2] it was below 10 nM; in data set [3], 500 to 1000 nM; in data set [4] it was 500 to 1000 nM; in [5] it was 1000 to 5000 nM; in [6], above 500 nM.
In the case of `CN(C)C(=O)c1cc2cnc(Nc3ccc(N4CCNCC4)cn3)nc2n1C1CCCC1` [LEE011, reference compound], the IC50 is at most 100 nM in data set [3], 1000 to 5000 nM in data set [4] and 500 to 1000 nM in data set [5].
Consider `CCN1CCN(Cc2ccc(Nc3ncc(F)c(-c4cc(F)c5nc(C)n(C(C)C)c5c4)n3)nc2)CC1` [LY2835219, reference compound], for which the IC50 in data set [3] is at most 100 nM; in data set [4], 100 to 500 nM; in data set [7] (read-out: IC50 (nM) G1 arrest) it was 35.2 ± 8.9 nM; in data set [7] (read-out: IC50 (nM) S decrease), 42.9 ± 13.5 nM; in data set [5], 100 to 500 nM.
For the compound `CC(=O)c1c(C)c2cnc(Nc3ccc(N4CCNCC4)cn3)nc2n(C2CCCC2)c1=O` [PD-0332991, Palbociclib, reference compound], the IC50 was 100 to 500 nM in data set [3]; 100 to 500 nM in data set [4]; 42.4 ± 16.1 nM in [7] (read-out: IC50 (nM) G1 arrest); 45.1 ± 10.9 nM in data set [7] (read-out: IC50 (nM) S decrease); 100 to 500 nM in [5]. Moreover, the “elimination half-life (Average)” value in [8] (Phase I clinical) is 25.9 h. Besides, in data set [8] (Phase I, single oral dose of 25-150 mg), the AUC (commonly the area under the concentration-time curve, a measure of exposure) is 58 to 641 ng·h/mL. In addition, the side effects result in data set [9] (clinical, Pfizer Press Release) is “leukocyte reduction and fatigue”. Moreover, the “average body weight of the mice” value in data set [10] (after 6 days of oral 150 mg/kg once daily) was “significantly reduced”. Besides, the T/C value stood at 41% in data set [10] (after 14 days of oral administration, PD-0332991 150 then 100 mg/kg once daily, Compound 1 75 mg/kg twice daily) and 35% in data set [10] (day 6 after discontinuation (D20)). For the same compound, in data set [11], the highest level (Cmax) was 213 ng/mL. In addition, in data set [11], the Tmax (commonly the time at which the peak concentration occurs) amounted to 1.2 h. Further, in [11], the half-life (in general, the time needed for the level to fall by half in the phase considered) was 10 h. In addition, the AUC(0-t) (as a rule, exposure summed from dosing to a finite time, without extrapolation to infinity) in data set [11] (0-24 hour) worked out at 1250 ng·h/mL. Further, in [11] (0-Inf), the AUC(0-inf) (commonly total exposure, with the tail of the curve extrapolated) came out at 1400 ng·h/mL.
Turning to `N#Cc1ccc(C(c2ccc(C#N)cc2)n2cncn2)cc1` [letrozole], the “progression-free survival (PFS)” value in data set [9] (phase II, postmenopausal women, ER+ HER2− breast cancer, p=0.0004) is on record as 10.2 months.
